The record followed here is patent US20180360042A1, “Liquid fungicide-containing formulations” (BAYER CROPSCIENCE AKTIENGESELLSCHAFT, priority 2015, published 2018).

The nature of series [1]: Determination of compound (III) content in prothioconazole formulations after storage at 54° C. for 2 weeks. The note with it: PTZ EC 250 after storage at 54° C. over 2 weeks. In kind it is physicochemical. The procedure:
(§1) Determination of 2-(1-chlorocyclopropyl)-1-(2-chlorophenyl)-3-(1H-1,2,4-triazol-1-yl)propan-2-ol (Compound III) in Formulations
(§2) 2-(1-Chlorocyclopropyl)-1-(2-chlorophenyl)-3-(1H-1,2,4-triazol-1-yl)propan-2-ol is separated from the formulation constituents on a reverse phase column using an isocratic eluent. After MS/MS detection, the quantitative evaluation is conducted by comparing the peak areas with those of the reference object, using an external standard.
(§3) High-pressure liquid chromatograph: HP 1090
(§4) Sample injection: HP 1090 Autoinjector
(§5) Mass spectrometer: Quattro I, Fisons
(§6) Integration and evaluation: MassLynx from Micromass
Example 9: Comparison of Compound (III) Content of the Formulations from Examples 1 to 4 after Storage at 54° C. for 2 Weeks

The nature of series [2]: Determination of compound (III) content in prothioconazole formulations by HPLC-MS/MS, starting samples. The note with it: PTZ EC 250 starting sample. In kind it is physicochemical. How it is done:
as §1, §2, §3, §4, §5, §6

Setting [3] is: addition of 10% wt/wt Hallcomid vs 0%.
Setting [4] is: addition of 20% wt/wt Hallcomid vs 0%.

`C=CCCCCCCCC(=O)N(C)C` [Hallcomid®, N,N-dimethyl 9-decenamide]: the “reduction in the content of compound (III)” value in series [1] (setting [3]) was 75%; in series [1] (setting [4]), 82%; in series [1] (addition of 56.9% wt/wt Hallcomid vs 0%), 98%. Further, the “reduction of the content of compound (III)” value in series [2] (setting [3]) is recorded as 72%; in series [2] (setting [4]) it was 76%; in series [2] (addition of 54.9% wt/wt Hallcomid vs 0%), 97%.
